Assay results from ChEMBL document CHEMBL3994622, “Design and synthesis of new RAF kinase-inhibiting antiproliferative quinoline derivatives. Part 2: Diarylurea derivatives” (Eur J Med Chem, 2017).

Columns and labels:
MDA-MB-468 [1] = assay: Growth inhibition of human MDA-MB-468 cells assessed as cell growth at 10 uM incubated for 48 hrs by sulforhodamine B assay relative to control; type: functional; conditions: MDA-MB-468, 48 h, read-out: Activity
MDA-MB-468 [2] = assay: Growth inhibition of human MDA-MB-468 cells assessed as cell growth at 100 uM incubated for 48 hrs by sulforhodamine B assay relative to control; type: functional; conditions: MDA-MB-468, 48 h, read-out: Activity
MDA-MB-468 [3] = assay: Growth inhibition of human MDA-MB-468 cells assessed as cell growth at 3 uM incubated for 48 hrs by sulforhodamine B assay relative to control; type: functional; conditions: MDA-MB-468, 48 h, read-out: Activity
RPMI-8226 = assay: Growth inhibition of human RPMI8226 cells assessed as cell growth at 0.5 uM incubated for 48 hrs by sulforhodamine B assay relative to control; type: functional; conditions: RPMI-8226, 48 h, read-out: Activity
OVCAR-3 [4] = assay: Growth inhibition of human OVCAR3 cells assessed as cell growth at 0.5 uM incubated for 48 hrs by sulforhodamine B assay relative to control; type: functional; conditions: OVCAR-3, 48 h, read-out: Activity
SW-620 [5] = assay: Growth inhibition of human SW620 cells assessed as cell growth at 0.005 uM incubated for 48 hrs by sulforhodamine B assay relative to control; type: functional; conditions: SW-620, 48 h, read-out: Activity
DU-145 = assay: Growth inhibition of human DU145 cells assessed as cell growth at 0.5 uM incubated for 48 hrs by sulforhodamine B assay relative to control; type: functional; conditions: DU-145, 48 h, read-out: Activity
HCC 2998 = assay: Growth inhibition of human HCC2998 cells assessed as cell growth at 0.05 uM incubated for 48 hrs by sulforhodamine B assay relative to control; type: functional; conditions: HCC 2998, 48 h, read-out: Activity
SF-295 [6] = assay: Growth inhibition of human SF295 cells assessed as cell growth at 50 uM incubated for 48 hrs by sulforhodamine B assay relative to control; type: functional; conditions: SF-295, 48 h, read-out: Activity
NCI-H23 = assay: Growth inhibition of human NCI-H23 cells assessed as cell growth at 0.005 uM incubated for 48 hrs by sulforhodamine B assay relative to control; type: functional; conditions: NCI-H23, 48 h, read-out: Activity
SK-MEL-28 = assay: Growth inhibition of human SK-MEL-28 cells assessed as cell growth at 50 uM incubated for 48 hrs by sulforhodamine B assay relative to control; type: functional; conditions: SK-MEL-28, 48 h, read-out: Activity
SF-539 = assay: Growth inhibition of human SF539 cells assessed as cell growth at 0.005 uM incubated for 48 hrs by sulforhodamine B assay relative to control; type: functional; conditions: SF-539, 48 h, read-out: Activity
U-251 = assay: Growth inhibition of human U251 cells assessed as cell growth at 0.5 uM incubated for 48 hrs by sulforhodamine B assay relative to control; type: functional; conditions: U-251, 48 h, read-out: Activity
EKVX [7] = assay: Growth inhibition of human EKVX cells assessed as cell growth at 0.005 uM incubated for 48 hrs by sulforhodamine B assay relative to control; type: functional; conditions: read-out: Activity
OVCAR-3 [8] = assay: Growth inhibition of human OVCAR3 cells assessed as cell growth at 0.05 uM incubated for 48 hrs by sulforhodamine B assay relative to control; type: functional; conditions: OVCAR-3, 48 h, read-out: Activity
SR = assay: Growth inhibition of human SR cells assessed as cell growth at 0.5 uM incubated for 48 hrs by sulforhodamine B assay relative to control; type: functional; conditions: read-out: Activity
Malme-3M [9] = assay: Growth inhibition of human MALME-3M cells assessed as cell growth at 0.5 uM incubated for 48 hrs by sulforhodamine B assay relative to control; type: functional; conditions: read-out: Activity
OVCAR-5 = assay: Growth inhibition of human OVCAR5 cells assessed as cell growth at 50 uM incubated for 48 hrs by sulforhodamine B assay relative to control; type: functional; conditions: OVCAR-5, 48 h, read-out: Activity
M14 = assay: Growth inhibition of human M14 cells assessed as cell growth at 50 uM incubated for 48 hrs by sulforhodamine B assay relative to control; type: functional; conditions: M14, 48 h, read-out: Activity
NCI-H522 = assay: Growth inhibition of human NCI-H522 cells assessed as cell growth at 5 uM incubated for 48 hrs by sulforhodamine B assay relative to control; type: functional; conditions: NCI-H522, 48 h, read-out: Activity
SW-620 [10] = assay: Growth inhibition of human SW620 cells assessed as cell growth at 0.05 uM incubated for 48 hrs by sulforhodamine B assay relative to control; type: functional; conditions: SW-620, 48 h, read-out: Activity
SF-295 [11] = assay: Growth inhibition of human SF295 cells assessed as cell growth at 0.5 uM incubated for 48 hrs by sulforhodamine B assay relative to control; type: functional; conditions: SF-295, 48 h, read-out: Activity
HL-60(TB) = assay: Growth inhibition of human HL-60(TB) cells assessed as cell growth at 0.5 uM incubated for 48 hrs by sulforhodamine B assay relative to control; type: functional; conditions: HL-60, 48 h, read-out: Activity
UACC-257 = assay: Growth inhibition of human UACC257 cells assessed as cell growth at 0.5 uM incubated for 48 hrs by sulforhodamine B assay relative to control; type: functional; conditions: UACC-257, 48 h, read-out: Activity
UACC-62 = assay: Growth inhibition of human UACC62 cells assessed as cell growth at 0.5 uM incubated for 48 hrs by sulforhodamine B assay relative to control; type: functional; conditions: UACC-62, 48 h, read-out: Activity
SN12C = assay: Growth inhibition of human SN12C cells assessed as cell growth at 0.5 uM incubated for 48 hrs by sulforhodamine B assay relative to control; type: functional; conditions: read-out: Activity
Malme-3M [12] = assay: Growth inhibition of human MALME-3M cells assessed as cell growth at 0.05 uM incubated for 48 hrs by sulforhodamine B assay relative to control; type: functional; conditions: read-out: Activity
MDA-MB-435 = assay: Growth inhibition of human MDA-MB-435 cells assessed as cell growth at 0.005 uM incubated for 48 hrs by sulforhodamine B assay relative to control; type: functional; conditions: MDA-MB-435, 48 h, read-out: Activity
NCI-H322M = assay: Growth inhibition of human NCI-H322M cells assessed as cell growth at 0.005 uM incubated for 48 hrs by sulforhodamine B assay relative to control; type: functional; conditions: read-out: Activity
LOX IMVI = assay: Growth inhibition of human LOXIMVI cells assessed as cell growth at 50 uM incubated for 48 hrs by sulforhodamine B assay relative to control; type: functional; conditions: read-out: Activity
UO-31 = assay: Growth inhibition of human UO31 cells assessed as cell growth at 0.05 uM incubated for 48 hrs by sulforhodamine B assay relative to control; type: functional; conditions: UO-31, 48 h, read-out: Activity
EKVX [13] = assay: Growth inhibition of human EKVX cells assessed as cell growth at 5 uM incubated for 48 hrs by sulforhodamine B assay relative to control; type: functional; conditions: read-out: Activity
[14] = biological target: Vascular endothelial growth factor receptor 2 (Homo sapiens) (UniProt P35968); assay: Inhibition of human KDR at 10 uM using poly[Glu:Tyr] (4:1) as substrate in presence of [33P]ATP by Hotspot assay relative to control
Vascular endothelial growth factor receptor 2 (Homo sapiens), sequence (P35968 whole entry): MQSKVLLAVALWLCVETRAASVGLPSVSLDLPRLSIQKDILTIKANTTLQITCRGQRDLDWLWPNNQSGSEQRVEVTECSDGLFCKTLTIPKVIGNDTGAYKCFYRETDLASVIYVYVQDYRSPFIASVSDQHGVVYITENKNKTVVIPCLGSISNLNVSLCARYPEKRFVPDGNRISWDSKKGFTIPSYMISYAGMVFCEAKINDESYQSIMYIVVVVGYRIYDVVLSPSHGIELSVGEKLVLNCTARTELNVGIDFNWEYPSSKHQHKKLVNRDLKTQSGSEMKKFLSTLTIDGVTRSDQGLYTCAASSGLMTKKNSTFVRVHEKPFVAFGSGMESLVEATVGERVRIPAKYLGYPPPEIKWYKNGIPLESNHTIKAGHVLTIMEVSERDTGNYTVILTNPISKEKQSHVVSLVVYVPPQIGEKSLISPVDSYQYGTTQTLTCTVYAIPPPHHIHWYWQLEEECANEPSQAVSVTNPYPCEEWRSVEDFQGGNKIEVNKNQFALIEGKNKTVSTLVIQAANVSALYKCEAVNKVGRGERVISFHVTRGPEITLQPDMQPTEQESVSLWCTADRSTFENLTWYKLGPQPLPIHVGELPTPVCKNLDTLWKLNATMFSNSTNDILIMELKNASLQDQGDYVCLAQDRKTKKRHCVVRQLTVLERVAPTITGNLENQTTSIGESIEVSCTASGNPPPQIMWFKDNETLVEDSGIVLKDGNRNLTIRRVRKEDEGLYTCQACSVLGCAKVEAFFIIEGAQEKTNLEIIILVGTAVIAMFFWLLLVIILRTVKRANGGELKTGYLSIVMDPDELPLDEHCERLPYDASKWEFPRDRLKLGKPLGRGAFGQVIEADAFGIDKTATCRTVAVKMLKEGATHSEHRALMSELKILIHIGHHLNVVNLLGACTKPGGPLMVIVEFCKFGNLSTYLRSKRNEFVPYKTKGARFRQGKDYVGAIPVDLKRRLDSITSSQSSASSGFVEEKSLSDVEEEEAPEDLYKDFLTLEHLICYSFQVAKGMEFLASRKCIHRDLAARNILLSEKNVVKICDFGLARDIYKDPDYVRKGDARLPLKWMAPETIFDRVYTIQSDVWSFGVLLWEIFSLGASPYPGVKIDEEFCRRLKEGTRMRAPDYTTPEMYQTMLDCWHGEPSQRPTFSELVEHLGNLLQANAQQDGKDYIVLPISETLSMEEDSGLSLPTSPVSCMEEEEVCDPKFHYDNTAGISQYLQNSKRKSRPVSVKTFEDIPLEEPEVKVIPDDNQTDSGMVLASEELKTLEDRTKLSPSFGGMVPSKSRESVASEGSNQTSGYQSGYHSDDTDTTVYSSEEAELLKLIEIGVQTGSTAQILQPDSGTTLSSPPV

[15] = biological target: Serine/threonine-protein kinase B-raf (Homo sapiens, UniProt P15056); assay: Inhibition of human BRAF using MEK1 as substrate in presence of [33P]ATP by Hotspot assay
Serine/threonine-protein kinase B-raf, sequence (P15056 whole entry): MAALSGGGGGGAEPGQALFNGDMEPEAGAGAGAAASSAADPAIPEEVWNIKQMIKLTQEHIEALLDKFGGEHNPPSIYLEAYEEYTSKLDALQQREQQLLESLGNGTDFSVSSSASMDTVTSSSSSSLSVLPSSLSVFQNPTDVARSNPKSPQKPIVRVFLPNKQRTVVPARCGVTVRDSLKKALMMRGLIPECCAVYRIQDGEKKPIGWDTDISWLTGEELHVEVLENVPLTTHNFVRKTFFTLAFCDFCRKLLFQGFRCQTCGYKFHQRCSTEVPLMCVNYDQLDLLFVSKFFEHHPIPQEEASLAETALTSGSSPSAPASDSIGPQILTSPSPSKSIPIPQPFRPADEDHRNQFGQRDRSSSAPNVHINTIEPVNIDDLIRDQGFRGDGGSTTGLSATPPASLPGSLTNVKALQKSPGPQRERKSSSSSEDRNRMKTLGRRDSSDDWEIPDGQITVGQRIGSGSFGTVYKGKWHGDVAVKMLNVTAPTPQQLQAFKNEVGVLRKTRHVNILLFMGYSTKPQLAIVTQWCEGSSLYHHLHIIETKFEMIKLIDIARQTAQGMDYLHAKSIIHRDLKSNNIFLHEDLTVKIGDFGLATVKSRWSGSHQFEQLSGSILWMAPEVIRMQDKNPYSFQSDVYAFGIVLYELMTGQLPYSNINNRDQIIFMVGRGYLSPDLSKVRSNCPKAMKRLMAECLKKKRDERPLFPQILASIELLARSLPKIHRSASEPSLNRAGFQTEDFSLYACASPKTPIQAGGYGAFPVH

## COc1cc2cc(Oc3ccc(NC(=O)Nc4cc(C(F)(F)F)cc(C(F)(F)F)c4)cc3)c(C)nc2cc1OC
MDA-MB-468 [1]
  growth at 10 µM: -36%
MDA-MB-468 [2]
  growth at 100 µM: -67%

## Cc1nc2cc(O)c(O)cc2cc1Oc1ccc(NC(=O)Nc2ccc(Cl)c(Cl)c2)cc1
MDA-MB-468 [3]
  growth at 3 µM: 92%

## COc1cc2cc(Oc3ccc(NC(=O)Nc4cccc(C(F)(F)F)c4)cc3)c(C)nc2cc1OC
RPMI-8226
  growth at 0.5 µM: 86%
OVCAR-3 [4]
  growth at 0.5 µM: 105%
SW-620 [5]
  growth at 0.005 µM: 99%
DU-145
  growth at 0.5 µM: 104%
HCC 2998
  growth at 0.05 µM: 105%
SF-295 [6]
  growth at 50 µM: -63%
NCI-H23
  growth at 0.005 µM: 96%
SK-MEL-28
  growth at 50 µM: -74%
SF-539
  growth at 0.005 µM: 104%
U-251
  growth at 0.5 µM: 94%
EKVX [7]
  growth at 0.005 µM: 105%
OVCAR-3 [8]
  growth at 0.05 µM: 101%
SR
  growth at 0.5 µM: 91%
Malme-3M [9]
  growth at 0.5 µM: 108%
OVCAR-5
  growth at 50 µM: -44%
M14
  growth at 50 µM: -61%
NCI-H522
  growth at 5 µM: -4%
SW-620 [10]
  growth at 0.05 µM: 98%
SF-295 [11]
  growth at 0.5 µM: 86%
HL-60(TB)
  growth at 0.5 µM: 112%
UACC-257
  growth at 0.5 µM: 82%
UACC-62
  growth at 0.5 µM: 86%
SN12C
  growth at 0.5 µM: 95%
Malme-3M [12]
  growth at 0.05 µM: 96%
MDA-MB-435
  growth at 0.005 µM: 95%
NCI-H322M
  growth at 0.005 µM: 91%
LOX IMVI
  growth at 50 µM: -99%
UO-31
  growth at 0.05 µM: 91%
EKVX [13]
  growth at 5 µM: 6%

## COc1cc2cc(Oc3ccc(NC(=O)Nc4ccc(Cl)c(C(F)(F)F)c4)cc3)c(C)nc2cc1OC
[14]
  inhibition: 0.83%
[15]
  IC50: 1330 nM
